# Values joined by “and” are separate entries in the source; they are usually repeats but may differ in a detail not shown here. Identical values can stand only once.
# How the values were obtained:
# [1] = tested on: MelanoDerm tissue (MEL-300-B); assay: Macroscopic skin lightening of fixed MelanoDerm tissue; format: cell-based, human; settings: fixed tissues
# Procedure: (§1) The effects of the test articles on skin color, melanin production, melanocyte morphology and dendricity and tissue morphology were assessed using MelanoDerm tissue (MEL-300-B). MelanoDerm tissue is another epidermal equivalent system from the MatTek Corporation of Ashland, Mass. This system consists of normal, human-derived epidermal keratinocytes (NHEK) and melanocytes (NHM) which have been cultured to form a multilayered, highly differentiated model of the human epidermis. The NHM within co-cultures undergo spontaneous melanogenesis leading to tissue pigmentation. The MEL-300-B system contains melanocytes derived from a donor.
# On Day zero of the study, prior to exposure to any test articles, MelanoDerm tissue samples were placed into wells on plates containing maintenance medium that had been pre-warmed to about 37° C. (Long life maintenance medium, EPI-100-LLMM). The Melanoderm tissue samples were then incubated for about an hour in a humidified incubator maintained at a temperature of about 37° C. in an atmosphere of about 5% CO2. Following incubation, the maintenance medium was removed by aspiration. A cell culture stand was then placed in each well on the plate containing a MelanoDerm tissue sample. About 5 mL of fresh maintenance medium pre-warmed to about 37° C. was then added to each well having a MelanoDerm tissue sample. […]
# [2] = tested on: EpiDerm tissue (normal, human-derived epidermal keratinocytes); assay: MTT tissue viability assay on EpiDerm tissue; format: cell-based; settings: 48 hours of exposure, negative control = 100%
# Procedure: The effect of the tested articles on cell viability was determined with an MTT assay. 10 μL and 25 μL portions of each of GS, SB, A, FS, DG and Mix were applied to separate duplicate samples of EpiDerm tissue (e.g., GS was applied to four tissue samples, with two samples receiving 10 μL and two samples receiving 25 μL of GS). 25 μL of the negative control was applied to each of three separate samples of EpiDerm tissue. EpiDerm tissue is an epidermal equivalent system from the MatTek Corporation of Ashland, Mass., consisting of normal, human-derived epidermal keratinocytes (NHEK) which have been cultured to form a multilayered, highly differentiated model of the human epidermis. After 48 hours of exposure to the test article or negative control each sample was rinsed with phosphate buffered saline (PBS) and the viability of the tissue (referenced to the negative control) was determined using the MTT tissue viability assay.
# The MTT assay determines cell viability by measuring the amount of 3-(4,5-dimethylthiazol-2-yl)-2,5-diphenyltetrazolium bromide (MTT) dye taken up by the cell cultures. Viable cells take up this dye and convert it to insoluble formazin crystals that resides in the mitochondria of the cells until extracted with alcohol. […] MTT was measured spectrophotometrically and the optical density of each sample was determined. […]
# [3] = tested on: MelanoDerm tissue (MEL-300-B); assay: Melanin assay on MelanoDerm tissue (MEL-300-B); format: cell-based, human; parameters: % melanin content relative to the Negative Control / % melanin content relative to the Positive Control: concentration or dose not given beside the values; settings: for Melanin content of the two tested samples for each test article: 25 μL applied Days 0, 1, 3, 6, 8
# Procedure: as §1
# On Day zero of the study, prior to exposure to any test articles, MelanoDerm tissue samples were placed into wells on plates containing maintenance medium that had been pre-warmed to about 37° C. (Long life maintenance medium, EPI-100-LLMM). The Melanoderm tissue samples were then incubated for about an hour in a humidified incubator maintained at a temperature of about 37° C. in an atmosphere of about 5% CO2. Following incubation, the maintenance medium was removed by aspiration. A cell culture stand was then placed in each well on the plate containing a MelanoDerm tissue sample. About 5 mL of fresh maintenance medium pre-warmed to about 37° C. was then added to each well having a MelanoDerm tissue sample. Then a cell culture insert was placed on top of each cell culture stand. 25 μL portions of each of GS, SB, A, FS, DG, Mix, negative control, and positive control were applied by pipette to six separate MelanoDerm tissue samples for each test article being tested (e.g., GS was applied to six tissue samples in six different wells). 25 μL portions of each of the test articles and controls were also applied to the same MelanoDerm tissue samples on Days, 1, 3, 6, and 8 of the study for each sample remaining (some samples were used for testing). Throughout the study, the maintenance medium was changed every two days to maintain the MelanoDerm tissue samples.
# On each of Days 3, 7, 10, and 14, one tissue sample for each test article and control was fixed with formalin, photographed to document macroscopic darkening, microscopically observed to examine melanocyte morphology and dendricity, then processed for histology. On Days 10 and 14, two tissue samples for each test article and control were frozen and later assayed for melanin content.
# To assay the tissues for melanin content, the frozen tissues were thawed and placed in Dulbecco's phosphate buffered saline (D-PBS) to remove excess phenol red from the maintenance medium. The tissues were removed from the D-PBS and each tissue was blotted dry and placed in a separate 1.7 ml microfuge tube. To each microfuge tube 250 μl of a tissue and gel solubilizer was added (Solvable™, 0.5 M—Packard BioScience Co. Catalogue No. 6NE9 100 (NEF910)). Dilutions for creating a standard curve were also prepared containing from 0-250 μg of melanin (Sigma cat. M 8631) in a total of 250 μl Solvable™. The tissues were incubated in their tubes overnight at about 60° C. overnight along with the dilutions. The tissue samples were then vortexed. Then the tissue samples were centrifuged at 13,000 rpm for 5 minutes to pellet. The supernatant from the tissue samples was collected. 250 μl of the supernatant from each tissue sample as well as the dilutions were then added to separate wells of a microwell plate. The plate was read at 490 nm. The optical densities of the dilutions were used to prepare a standard curve against which the optical densities of the tissue sample supernatants could be compared to determine the melanin content of the tissue samples. […]
smiles,measurement,setting,value
"CC1(C)[C@@H](O[C@H]2O[C@H](C(=O)[O-])[C@@H](O)[C@H](O)[C@H]2O[C@@H]2O[C@H](C(=O)[O-])[C@@H](O)[C@H](O)[C@H]2O)CC[C@]2(C)[C@H]3C(=O)C=C4[C@@H]5C[C@@](C)(C(=O)O)CC[C@]5(C)CC[C@@]4(C)[C@]3(C)CC[C@@H]12.[K+].[K+] [DG, dipotassium glycyrrhizate]",macroscopic lightening compared with the negative control,"[1]; Days 3, 7, 10, and 14",lightening effect
same,% Viability of tissue sample exposed to test article,[2]; 10 mL (so in the source) applied,94.62%
same,% Viability of tissue sample exposed to test article,[2]; 25 mL (so in the source) applied,94.46%
same,% melanin content relative to the Negative Control,[3]; Day 10,100.6%
same,% melanin content relative to the Positive Control,[3]; Day 10,109.5%
same,Average melanin content,[3]; Day 10,24.8 μg/tissue
same,Melanin content of the two tested samples for each test article,[3]; Day 10,27.3 μg/tissue and 22.3 μg/tissue
same,% melanin content relative to the Negative Control,[3]; Day 14,85.8%
same,% melanin content relative to the Positive Control,[3]; Day 14,118.7%
same,Average melanin content,[3]; Day 14,31.8 μg/tissue
same,Melanin content of the two tested samples for each test article,[3]; Day 14,26.0 μg/tissue and 37.6 μg/tissue
"O=c1cc(CO)occ1O [Positive Control, kojic acid]",macroscopic lightening compared with the negative control,"[1]; Days 3, 7, and 10",lighter than the negative control
same,% melanin content relative to the Negative Control,[3]; Day 10,91.9%
same,% melanin content relative to the Positive Control,[3]; Day 10,100.0%
same,Average melanin content,[3]; Day 10,22.7 μg/tissue
same,Melanin content of the two tested samples for each test article,[3]; Day 10,25.0 μg/tissue and 20.3 μg/tissue
same,melanin content compared with the negative control (in words),[3]; Day 10 and Day 14,lower melanin content than the negative control
same,% melanin content relative to the Negative Control,[3]; Day 14,72.3%
same,% melanin content relative to the Positive Control,[3]; Day 14,100.0%
same,Average melanin content,[3]; Day 14,26.8 μg/tissue
same,Melanin content of the two tested samples for each test article,[3]; Day 14,26.6 μg/tissue and 27.0 μg/tissue

# From patent publication US20080241084A1, “Compositions and methods for inhibiting melanogenesis” (Shaklee Corporation, priority 2007, published 2008)
